# Assay results as given in patent publication US10053443B2, “2-phenylbenzofuran derivatives, method for preparing the same and use of the same for treating inflammatory disease” (KOREA RESEARCH INSTITUTE OF BIOSCIENCE AND BIOTECHNOLOGY, priority 2014, dated 2018).
# Legend:
# [1] = system: interleukin-6 (IL-6) generation; assay: Inhibition of interleukin-6 (IL-6) generation in LPS-treated Raw 264.7 cells (ELISA); assay type: cell-based, mouse; settings: Mus musculus, RAW264.7; Raw 264.7, LPS treated; read-out: Grades of IC50 on IL-6 generation
# Method: Raw 264.7 cells were distributed by the same manner as described in Experimental Example <2-1>, and IL-6 included in the supernatant treated with each sample at different concentrations was measured by enzyme-linked immunosorbent assay (IL-6 ELISA kit, BD Bioscience, San Diego, Calif.).
# Particularly, 10-fold diluted supernatant was distributed in a 96-well plate on which IL-6 antibody was attached, followed by adhesion for 2 hours. The supernatant remaining after the adhesion was washed with a washing buffer. The detection antibody and HRP were adhered on the washed plate for 1 hour. The remaining antibody was washed. Color development was induced by using TMB substrate. The reaction was terminated with sulfuric acid solution. Then, OD450 was measured. IL-6 in the supernatant was quantified by using the standard curve made with the standard IL-6 included in the kit. IL-6 suppression rate was calculated by measuring the same concentration that could inhibit IL-6 generation up to 50% in the LPS treated group and the results are shown in Table 8.
# [2] = Toxicity test, single oral administration: toxicological changes in abdomen, chest and major organs (autopsy); assay type: in vivo; settings: for Clinical sign: Abdominal cavity (toxicological changes, animals affected/total) / Clinical sign: Major organs (toxicological changes, animals affected/total) / Clinical sign: Thoracic cavity (toxicological changes, animals affected/total) / Mortality (animals dead/total) / Clinical sign: Abdominal cavity (toxicological changes), Total / Clinical sign: Major organs (toxicological changes), Total / Clinical sign: Thoracic cavity (toxicological changes), Total / Mortality, Total: single oral administration, mouse
# From the text: 1. Test Material and Control Material • Test material: compound of Example 4 • Storage condition: frozen storage • Control material: 10% DMSO+10% Tween 20 in PBS
# 2. Test System • Animal: female Balb/c • Animal provider: Koatech • Age and weight of animal • Age at the time of arrival: 5 week • Number at the time of arrival: 28 • Age at the start of administration: 6 week • Number at the start of administration: 28 ? • Weight at the start of administration: 16.1˜16.5 g
# 3. Administration Method and Preparation of Test Material • Administration method: single oral administration • Preparation of test material: Test materials were prepared by using 10% DMSO+10% Tween-20 in PBS as a solvent for each dose. The preparation was carried out immediately before the administration
# On the 10th day after the administration, all the surviving animals were anesthetized with CO2 gas. Laparotomy was performed and the animals were sacrificed by venesection from the abdominal aorta. Then, all the internal organs of the animal were observed by the naked eye.
# The compound of Example 4 was orally administered once to female Balb/c mouse at the doses of 250, 500, and 1000 mg/kg in order to obtain the information on acute toxicity of the compound of Example 4, followed by investigation of death rate, general symptoms, and weight changes for 10 days by autopsy.
# After the administration of the compound of Example 4, the mice were autopsied on the last day, and the toxicological changes in the abdomen, chest and major organs were observed.
compound,measurement,setting,value
"COc1cc(CCCO)cc2cc(-c3ccc(C)cc3)oc12 [Example 4, 3-(7-methoxy-2-p-tolylbenzofuran-5-yl)propane-1-ol]",IC50,[1],≤ 10 µM
same,"Clinical sign: Abdominal cavity (toxicological changes, animals affected/total)","[2]; 250 mg/kg, Day 1",0/7
same,"Clinical sign: Major organs (toxicological changes, animals affected/total)","[2]; 250 mg/kg, Day 1",0/7
same,"Clinical sign: Thoracic cavity (toxicological changes, animals affected/total)","[2]; 250 mg/kg, Day 1",0/7
same,Mortality (animals dead/total),"[2]; 250 mg/kg, Day 1",0/7
same,"Clinical sign: Abdominal cavity (toxicological changes, animals affected/total)","[2]; 250 mg/kg, Day 7",0/7
same,"Clinical sign: Major organs (toxicological changes, animals affected/total)","[2]; 250 mg/kg, Day 7",0/7
same,"Clinical sign: Thoracic cavity (toxicological changes, animals affected/total)","[2]; 250 mg/kg, Day 7",0/7
same,Mortality (animals dead/total),"[2]; 250 mg/kg, Day 7",0/7
same,"Clinical sign: Abdominal cavity (toxicological changes, animals affected/total)","[2]; 250 mg/kg, Day 8",0/7
same,"Clinical sign: Major organs (toxicological changes, animals affected/total)","[2]; 250 mg/kg, Day 8",0/7
same,"Clinical sign: Thoracic cavity (toxicological changes, animals affected/total)","[2]; 250 mg/kg, Day 8",0/7
same,Mortality (animals dead/total),"[2]; 250 mg/kg, Day 8",0/7
same,"Clinical sign: Abdominal cavity (toxicological changes, animals affected/total)","[2]; 250 mg/kg, Day 9",0/7
same,"Clinical sign: Major organs (toxicological changes, animals affected/total)","[2]; 250 mg/kg, Day 9",0/7
same,"Clinical sign: Thoracic cavity (toxicological changes, animals affected/total)","[2]; 250 mg/kg, Day 9",0/7
same,Mortality (animals dead/total),"[2]; 250 mg/kg, Day 9",0/7
same,"Clinical sign: Abdominal cavity (toxicological changes, animals affected/total)","[2]; 250 mg/kg, Day 10",0/7
same,"Clinical sign: Major organs (toxicological changes, animals affected/total)","[2]; 250 mg/kg, Day 10",0/7
same,"Clinical sign: Thoracic cavity (toxicological changes, animals affected/total)","[2]; 250 mg/kg, Day 10",0/7
same,Mortality (animals dead/total),"[2]; 250 mg/kg, Day 10",0/7
same,"Clinical sign: Abdominal cavity (toxicological changes), Total",[2]; 250 mg/kg,0
same,"Clinical sign: Major organs (toxicological changes), Total",[2]; 250 mg/kg,0
same,"Clinical sign: Thoracic cavity (toxicological changes), Total",[2]; 250 mg/kg,0
same,"Mortality, Total",[2]; 250 mg/kg,0
same,"Clinical sign: Abdominal cavity (toxicological changes, animals affected/total)","[2]; 500 mg/kg, Day 1",0/7
same,"Clinical sign: Major organs (toxicological changes, animals affected/total)","[2]; 500 mg/kg, Day 1",0/7
same,"Clinical sign: Thoracic cavity (toxicological changes, animals affected/total)","[2]; 500 mg/kg, Day 1",0/7
same,Mortality (animals dead/total),"[2]; 500 mg/kg, Day 1",0/7
same,"Clinical sign: Abdominal cavity (toxicological changes, animals affected/total)","[2]; 500 mg/kg, Day 7",0/7
same,"Clinical sign: Major organs (toxicological changes, animals affected/total)","[2]; 500 mg/kg, Day 7",0/7
same,"Clinical sign: Thoracic cavity (toxicological changes, animals affected/total)","[2]; 500 mg/kg, Day 7",0/7
same,Mortality (animals dead/total),"[2]; 500 mg/kg, Day 7",0/7
same,"Clinical sign: Abdominal cavity (toxicological changes, animals affected/total)","[2]; 500 mg/kg, Day 8",0/7
same,"Clinical sign: Major organs (toxicological changes, animals affected/total)","[2]; 500 mg/kg, Day 8",0/7
same,"Clinical sign: Thoracic cavity (toxicological changes, animals affected/total)","[2]; 500 mg/kg, Day 8",0/7
same,Mortality (animals dead/total),"[2]; 500 mg/kg, Day 8",0/7
same,"Clinical sign: Abdominal cavity (toxicological changes, animals affected/total)","[2]; 500 mg/kg, Day 9",0/7
same,"Clinical sign: Major organs (toxicological changes, animals affected/total)","[2]; 500 mg/kg, Day 9",0/7
same,"Clinical sign: Thoracic cavity (toxicological changes, animals affected/total)","[2]; 500 mg/kg, Day 9",0/7
same,Mortality (animals dead/total),"[2]; 500 mg/kg, Day 9",0/7
same,"Clinical sign: Abdominal cavity (toxicological changes, animals affected/total)","[2]; 500 mg/kg, Day 10",0/7
same,"Clinical sign: Major organs (toxicological changes, animals affected/total)","[2]; 500 mg/kg, Day 10",0/7
same,"Clinical sign: Thoracic cavity (toxicological changes, animals affected/total)","[2]; 500 mg/kg, Day 10",0/7
same,Mortality (animals dead/total),"[2]; 500 mg/kg, Day 10",0/7
same,"Clinical sign: Abdominal cavity (toxicological changes), Total",[2]; 500 mg/kg,0
same,"Clinical sign: Major organs (toxicological changes), Total",[2]; 500 mg/kg,0
same,"Clinical sign: Thoracic cavity (toxicological changes), Total",[2]; 500 mg/kg,0
same,"Mortality, Total",[2]; 500 mg/kg,0
same,"Clinical sign: Abdominal cavity (toxicological changes, animals affected/total)","[2]; 1000 mg/kg, Day 1",0/7
same,"Clinical sign: Major organs (toxicological changes, animals affected/total)","[2]; 1000 mg/kg, Day 1",0/7
same,"Clinical sign: Thoracic cavity (toxicological changes, animals affected/total)","[2]; 1000 mg/kg, Day 1",0/7
same,Mortality (animals dead/total),"[2]; 1000 mg/kg, Day 1",0/7
same,"Clinical sign: Abdominal cavity (toxicological changes, animals affected/total)","[2]; 1000 mg/kg, Day 7",0/7
same,"Clinical sign: Major organs (toxicological changes, animals affected/total)","[2]; 1000 mg/kg, Day 7",0/7
same,"Clinical sign: Thoracic cavity (toxicological changes, animals affected/total)","[2]; 1000 mg/kg, Day 7",0/7
same,Mortality (animals dead/total),"[2]; 1000 mg/kg, Day 7",0/7
same,"Clinical sign: Abdominal cavity (toxicological changes, animals affected/total)","[2]; 1000 mg/kg, Day 8",0/7
same,"Clinical sign: Major organs (toxicological changes, animals affected/total)","[2]; 1000 mg/kg, Day 8",0/7
same,"Clinical sign: Thoracic cavity (toxicological changes, animals affected/total)","[2]; 1000 mg/kg, Day 8",0/7
same,Mortality (animals dead/total),"[2]; 1000 mg/kg, Day 8",0/7
same,"Clinical sign: Abdominal cavity (toxicological changes, animals affected/total)","[2]; 1000 mg/kg, Day 9",0/7
same,"Clinical sign: Major organs (toxicological changes, animals affected/total)","[2]; 1000 mg/kg, Day 9",0/7
same,"Clinical sign: Thoracic cavity (toxicological changes, animals affected/total)","[2]; 1000 mg/kg, Day 9",0/7
same,Mortality (animals dead/total),"[2]; 1000 mg/kg, Day 9",0/7
same,"Clinical sign: Abdominal cavity (toxicological changes, animals affected/total)","[2]; 1000 mg/kg, Day 10",0/7
same,"Clinical sign: Major organs (toxicological changes, animals affected/total)","[2]; 1000 mg/kg, Day 10",0/7
same,"Clinical sign: Thoracic cavity (toxicological changes, animals affected/total)","[2]; 1000 mg/kg, Day 10",0/7
same,Mortality (animals dead/total),"[2]; 1000 mg/kg, Day 10",0/7
same,"Clinical sign: Abdominal cavity (toxicological changes), Total",[2]; 1000 mg/kg,0
same,"Clinical sign: Major organs (toxicological changes), Total",[2]; 1000 mg/kg,0
same,"Clinical sign: Thoracic cavity (toxicological changes), Total",[2]; 1000 mg/kg,0
same,"Mortality, Total",[2]; 1000 mg/kg,0
same,"toxicological changes (abdomen, chest and major organs)","[2]; 250, 500, 1000 mg/kg single oral, autopsy on last day",not observed
